Experimental data as given in patent publication US20100312139A1, “Method for Identifying Mammals at Risk for Elevated intracranial Pressure” (BOARD OF REGENTS OF THE UNIVERSITY OF TEXAS SYSTEM, priority 2009, published 2010).

Test system: TBI-associated cerebral edema, controlled cortical impact model
Test: Cerebral edema as percentage brain water content (wet-dry method) after controlled cortical impact brain injury
Assay type: in vivo
Details: rat, 400 mg/kg administered 30 minutes after cortical impact injury, measured 24 hr after injury, versus control animals
Method: A number of studies have reported that blood-brain barrier compromise and cerebral edema are key contributors to the elevation of ICP. Penicillamine is a copper scavenger that is FDA approved for the treatment of Wilson's disease. Therefore penicillamine was used in this study to determine if sequestration of copper would restore TBI-associated BBB permeability and cerebral edema. […] BBB permeability was assessed by measuring the extravasation of Evans Blue dye as described in Zhao, et al., 2007 (Zhao, J., Moore, A. N., Redell, J. B. and Dash, P. K. 2007. Enhancing expression of Nrf2-driven genes protects the blood brain barrier after brain injury. J. Neurosci. 27, 10240-10248).
Cerebral edema was assessed by determining the percentage brain water content using the wet-dry method as described previously (McIntosh, T. K., Soares, H., Thomas, M. and Cloherty, K. 1990. Development of regional cerebral oedema after lateral fluid-percussion brain injury in the rat. Acta Neurochir. Suppl (Wien.) 51, 263-264; Shohami, E., Novikov, M. and Mechoulam, R. 1993. A nonpsychotropic cannabinoid, HU-211, has cerebroprotective effects after closed head injury in the rat. J. Neurotrauma 10, 109-119). BBB permeability and cerebral edema were measured 24 hr after injury, in independent sets of animals.

Compound: CC(C)(S)[C@@H](N)C(=O)O [penicillamine, Penicillamine]
- effect on cerebral edema (percentage brain water content): did not have any effect
